Drawing on ChEMBL document CHEMBL5143624, “WCK 1152, WCK 1153: Discovery and structure activity relationship for the treatment of resistant pneumococcal and staphylococcal respiratory infections” (Bioorg Med Chem Lett, 2022), this text covers Activity, EC50 and MIC for six compounds.

The nature of data set [1]: Mutagenicity in Swiss mouse assessed as chromosomal aberration in bone marrow cells at 400 mg/kg, po measured after 24 hrs relative to control. Format: toxicity, organism-based. As to conditions: in vivo.
In data set [2] the test system is Streptococcus pneumoniae. The data set can be described thus: Antibacterial activity against beta-lactams, macrolide and fluoroquinolone resistant Streptococcus pneumoniae 718 infected in po dosed Swiss mouse septicemia model assessed as protective dose administered on 1 and 5 hrs post infection and measured on day 7. Format: functional, organism-based.
The nature of data set [3]: Induction of drug resistance in methicillin resistant Staphylococcus aureus assessed as increase in MIC measured after 10 passages (reference value: 0.4 ug/ml). In kind it is functional.
Data set [4] deals with Staphylococcus aureus. The data set can be described thus: Antibacterial activity against methicillin resistant Staphylococcus aureus 5076 harbouring DNA gyrase and topoisomerase IV mutant and efflux pump assessed as inhibition of bacterial growth incubated for 18 hrs in presence of efflux inhibitor by CLSI based serial agar dilution method. In kind it is functional. (In agar dilution the substance is mixed into plates at graded concentrations.)

For data set [5], the system named is Staphylococcus aureus. The data set can be described thus: Antibacterial activity against methicillin resistant Staphylococcus aureus assessed as inhibition of bacterial growth incubated for 18 hrs by CLSI based serial agar dilution method. Format: functional. As to conditions: Staphylococcus aureus, read-out: MIC.
Data set [6] has as its system Staphylococcus aureus. Description: Antibacterial activity against methicillin resistant Staphylococcus aureus 032 assessed as inhibition of bacterial growth incubated for 18 hrs by CLSI based serial agar dilution method. Format: functional.
Data set [7] has as its system Staphylococcus aureus. The data set can be described thus: Antibacterial activity against Staphylococcus aureus […] assessed as inhibition of bacterial growth incubated for 18 hrs by CLSI based serial agar dilution method. Format: functional.
The test system of data set [8] is Staphylococcus aureus. Description: Antibacterial activity against methicillin resistant Staphylococcus aureus 5076 assessed as inhibition of bacterial growth incubated for 18 hrs by CLSI based serial agar dilution method. Format: functional.
In data set [9] the test system is Streptococcus pneumoniae. Description: Antibacterial activity against beta-lactams, macrolide and fluoroquinolone resistant Streptococcus pneumoniae 718 assessed as inhibition of bacterial growth incubated for 18 hrs by CLSI based serial agar dilution method. In kind it is functional.
The mark [10] stands for this setting: Staphylococcus aureus, 032, 18 h, read-out: MIC.

Broadly, the MIC is the lowest concentration that inhibits growth of the organism.

The structures appear in SMILES notation. Values after ≈ are worked out from the molar mass of the structure shown. Where only a bound is given, the exact number is not on record here.

Take `COc1c(N2CCC(N)C(C)(C)C2)c(F)cc2c(=O)c(C(=O)O)cn(C3CC3)c12` (stereo in doubt; form 2): in [1], the Activity is on record as 12%.
Same read-out and setting: with `COc1c(N2CCC(N)C(C)(C)C2)c(F)cc2c(=O)c(C(=O)O)cn(C3CC3)c12` (single isomer, unassigned; (-)) the figure was 3.8%.
As for `COc1c(N2C[C@@H]3CCCN[C@@H]3C2)c(F)cc2c(=O)c(C(=O)O)cn(C3CC3)c12` [MOXIFLOXACIN], in the data set with Streptococcus pneumoniae [2], the EC50 is more than 100 mg/kg. Also, in data set [3], the minimal inhibitory concentration (MIC) came out at 6.25 mg/L.
Consider `COc1c(N2CCC(N)C(C)(C)C2)c(F)cc2c(=O)c(C(=O)O)cn(C3CC3)c12` (stereo in doubt; form 1), for which the Activity in data set [1] is on record as 5.83%. Besides, the MIC with Staphylococcus aureus [4] was 1.56 mg/L; with Staphylococcus aureus [5] it was 0.05 mg/L (≈ 0.124 µM); with Staphylococcus aureus [6] (setting [10]), 0.6 mg/L (≈ 1.49 µM). Moreover, the EC50 with Streptococcus pneumoniae [2] was 30 mg/kg.
Turning to `Cc1c(N2CCC(O)C(C)(C)C2)c(F)cc2c(=O)c(C(=O)O)cn(C3CC3)c12` (single isomer, unassigned; (+)), the MIC was found to be 0.2 mg/L in the data set on Staphylococcus aureus [4]; 0.2 mg/L (≈ 0.515 µM) in the data set with Staphylococcus aureus [6] (setting [10]); 0.003 mg/L (≈ 0.00772 µM) in the data set on Staphylococcus aureus [7]; 0.2 mg/L (≈ 0.515 µM) in the data set on Staphylococcus aureus [8]; 0.2 mg/L (≈ 0.515 µM) in the data set on Streptococcus pneumoniae [9] (Streptococcus pneumoniae, 718, 18 h, read-out: MIC).
In the case of `Cc1c(N2CCC(N)C(C)(C)C2)c(F)cc2c(=O)c(C(=O)O)cn(C3CC3)c12` (single isomer, unassigned; (-)), the MIC worked out at 0.8 mg/L in the data set on Staphylococcus aureus [4], 0.4 mg/L (≈ 1.03 µM) with Staphylococcus aureus [6] (18 h), 0.8 mg/L (≈ 2.06 µM) with Staphylococcus aureus [8] and 0.4 mg/L (≈ 1.03 µM) in the data set on Streptococcus pneumoniae [9] (18 h). For the same compound, the EC50 with Streptococcus pneumoniae [2] is 20 mg/kg.
